From patent US7482008B1, “Human T cell reactive feline protein (TRFP) isolated from house dust and uses therefor” (Merck Patent GmbH, priority 1989, dated 2009)

What was measured:
[1] = tested on: T cells from cat-allergic patients; assay: Secondary proliferation assay of T cells primed with TRFP, peptide YXZ or peptide YZX; type: cell-based, human
How it was run: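 2×10^4 resting T cells cultured 3 days at 37° C. with 2×10^4 irradiated autologous EBV-transformed B cells as APCs and varying antigen concentrations, then pulsed 16 h with tritiated thymidine. Stimulation index = maximum antigen CPM / medium control CPM; index of 2.5 taken as positive.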

basophils = assay: Histamine release from basophils in heparinized whole blood of cat allergic patients; type: cell-based, human; conditions: eight cat allergic patients
Experimental: The histamine release assay used for these studies is based on the detection of an acylated derivative of histamine using a specific monoclonal antibody (Morel, A. M. and Delaage, M. A.; 1988, J. Allergy Clin. Immunol. 82:646-654.) This assay was performed as two separate protocols: 1) the release of histamine from basophils present in heparinized whole blood in the presence of different concentrations of antigens and 2) the actual assaying of histamine present in the supernates of the release reactions following cell removal by centrifugation. The reagents for this histamine radioimmunoassay are supplied commercially as a kit by Amac Inc. (Westbrook, Me.).
Whole blood was drawn from cat allergic patients using heparinized syringes or vacutainers. […] The buffer control consisted of whole blood with just buffer and no added antigen. The release reactions were then carried out at 37° C. for 30 minutes. After this incubation the tubes were centrifuged at 1500 RPM for 3 minutes and the supernates were carefully removed. It was important to spin gently so that there would be no cell lysis giving misleading results. […]
For the RIA analysis, a 50 μl aliquot of the release supernatant was diluted 1:4 with Histamine release buffer (supplied with the kit from Amac Inc.) Then 100 μl of each diluted supernatant was added to the tubes containing the acylation reagent (a lyophilized powder). […] Then they were counted on a gamma counter (Cobra 5005, Beckman Inc.) for two minutes/tube.
Following the quantitation of ^125I label/tube the standard curve is generated from the histamine standard counts and plotted on semi-log paper. Because this is a competition assay, with labelled ^125I tracer competing with the standards or unknowns for cell supernatants, the lower the recorded counts the greater the amount of cold acylated histamine in the binding assay. The data points were then generated by reading off the values on the plotted standard curve of counts versus histamine concentration (in nM).

[2] = tested on: human IgE (cat allergic patient plasma); assay: Direct binding ELISA of human IgE to coated antigen; conditions: for specific IgE binding: direct binding ELISA or similar protocol
Experimental: The basic format of these ELISA assays was a direct binding assay wherein the antigen was coated onto the wells of a 96 well microtitre dish and then antibodies in solution are added and assayed for the binding capacity. The protocol for these assays was as follows:
The peptides were conjugated to HSA (human serum albumin) by two different methods based on their chemical structure. […] Both conjugates were filter purified and dialyzed against PBS. In the ELISA assay, the unbound coating antigens were removed and the wells were blocked with 0.5% gelatin in PBS, 200 μl/well for 2 hours at room temperature. The antibody solution was a pool of plasma samples from 20 patients that were skin test positive for commercial cat extract which was serially diluted with PBS-Tween 20 (PBS with 0.05% nonionic detergent Tween-Sigma, St. Louis Mo.) and 100 μl/well was added and incubated overnight at 4° C. (plasma dilutions are tested in duplicate). […] The second antibody (biotinylated goat anti-Human IgE, 1:1000 Kirkegaard & Perry Laboratories Inc. Gaithersburg, Md.), was added at 100 μl/well for one hour at room temperature. This solution was removed and streptavidin-HRPO, 1:1000, (Southern Biotechnology Associates, Inc., Birmingham, Ala.) was then added at 100 μl/well for one hour at room temperature (all wells were washed three times with PBS-Tween between each incubation step). TMB Membrane Peroxidase Substrate system (Kirkegaard & Perry Laboratories) was freshly mixed, and added at 100 μl/well. The color was allowed to develop for 2-5 minutes. The reaction was stopped by the addition of […] of 1 M phosphoric acid. Plates are read on a Microplate EL 310 Autoreader (Biotek Instruments, Winooski, Vt.) with a 450 nm filter. The absorbance levels of duplicate wells were averaged.

[3] = patient 519, cells primed with peptide YXZ
[4] = patient 522, T cells primed with YXZ
[5] = patient 386, T cells primed with YZX
[6] = patient 386, T cells primed with native TRFP
[7] = patient 519, native TRFP-primed T cells
[8] = patient 522, T cells primed with native TRFP, SI 2.5 positive

## NARILKNCVDAKMTEEDKE [Fel 4, TRFP chain 1 amino acids 37-55]
[1]; [3]
  T cell response: positive responses
[1]; [4]
  T cell response: respond at a similar level or better

## TRFP: human T cell reactive feline protein affinity purified from house dust; two covalently linked chains
[1]; [5]
  T cell response: respond at a similar level or better
[1]; [6]
  T cell response: positively respond
[1]; [3]
  T cell response: positive responses
[1]; [7]
  T cell response: respond
[1]; [4]
  T cell response: respond less well
[1]; [8]
  T cell response: positively respond
basophils
  histamine release: at all but the lowest concentration, gives a clear release signal
[2]; ELISA, percent of cat allergic patients with positive IgE binding
  Positive Binding: 100%
[2]; pooled plasma, first dilution 1:2 in PBS
  absorbance reading, IgE binding: 0.65

## peptide X: amino acid residues 7-30 from chain 1 of TRFP (SEQ. ID. NO: 17); Table 2 lists Fel 8-3 as 7-33 (KRDVDLFLTGTPDEYVEQVAQYKALPV)
[1]; [5]
  T cell response: respond at a similar level or better
[1]; [6]
  T cell response: positively respond
[1]; [3]
  T cell response: positive responses
[1]; [4]
  T cell response: respond at a similar level or better
basophils
  histamine release: no discernible histamine release
[2]
  specific IgE binding: do not demonstrate any specific IgE binding
[2]; listed as Fel 8-3
  specific IgE binding: No direct IgE binding

## peptide Y: amino acid residues 29-55 from chain 1 of TRFP (SEQ. ID. NO: 18) (KALPVVLENARILKNCVDAKMTEEDKE)
[1]; [5]
  T cell response: respond at a similar level or better
[1]; [6]
  T cell response: positively respond
[1]; [3]
  T cell response: positive responses
[1]; [7]
  T cell response: respond
[1]; [4]
  T cell response: respond at a similar level or better
[1]; [8]
  T cell response: positively respond
basophils
  histamine release: no discernible histamine release
[2]
  specific IgE binding: do not demonstrate any specific IgE binding
[2]; listed as Fel 30-4
  specific IgE binding: No direct IgE binding
